Measurements from ChEMBL document CHEMBL1140453, “Solid-phase synthesis and thermal denaturation study of cyclic PNAs targeting the HIV-1 TAR RNA loop” (Bioorg Med Chem Lett, 2007).

How the values were obtained:
Nucleic Acid [1] = assay: Binding affinity to HIV1 3B mini TAR RNA assessed as melting temperature by UV spectrometry based thermal denaturation assay; assay type: nucleic-acid assay; conditions: Human immunodeficiency virus 1
Nucleic Acid [2] = assay: Binding affinity to HIV1 3B mini TAR RNA assessed as change in melting temperature by UV spectrometry based thermal denaturation assay; assay type: nucleic-acid assay; conditions: Human immunodeficiency virus 1

## Cc1cn(CC(=O)N(CCNC(=O)CN(CCNC(=O)[C@@H](N)CCCCN)C(=O)Cn2cnc3c(=O)[nH]c(N)nc32)CC(=O)NCCN(CC(=O)NCCN(CC(=O)NCCN(CC(=O)NCCN(CC(=O)NCCN(CC(=O)NCCN(CC(=O)N[C@@H](CCC(N)=O)C(=O)O)C(=O)Cn2cnc3c(N)ncnc32)C(=O)Cn2cnc3c(=O)[nH]c(N)nc32)C(=O)Cn2cnc3c(N)ncnc32)C(=O)Cn2ccc(N)nc2=O)C(=O)Cn2cnc3c(N)ncnc32)C(=O)Cn2ccc(N)nc2=O)c(=O)[nH]c1=O
Nucleic Acid [1]
  Tm: 43.2 °C

## Cc1cn(CC(=O)N(CCNC(=O)CN(CCNC(=O)[C@@H](N)CCCCN)C(=O)Cn2cnc3c(=O)[nH]c(N)nc32)CC(=O)NCCN(CC(=O)NCCN(CC(=O)NCCN(CC(=O)NCCN(CC(=O)NCCN(CC(=O)NCCN(CC(=O)N[C@@H](CCC(N)=O)C(=O)O)C(=O)Cn2cnc3c(N)ncnc32)C(=O)Cn2cnc3c(=O)[nH]c(N)nc32)C(=O)Cn2cnc3c(N)ncnc32)C(=O)Cn2ccc(N)nc2=O)C(=O)Cn2ccc(N)nc2=O)C(=O)Cn2ccc(N)nc2=O)c(=O)[nH]c1=O
Nucleic Acid [2]
  ΔTm: 0.5 °C
Nucleic Acid [1]
  Tm: 40.5 °C
